Measured values reported in patent US9757375B2, “Compounds that inhibit human DNA ligases and methods of treating cancer” (University of Maryland, Baltimore, priority 2007, dated 2017).
Like-named read-outs stand apart in the source and are kept apart here. Marks after values point to notes of the source that are not given here.

Tests used:
HCT116 cells [1] = assay: Screen for potentiation of DNA damaging agents (MMS, camptothecin, cis-platinum, 3 aminobenzamide, ionizing radiation); format: cell-based, human; conditions: for MMS: Ratios of IC50 HCT116: compound alone vs combination with MMS (100 μM); for MMS: Ratios of IC50 HCT116 / IC50 ratios of non- and 3-AB treated cells HCT116: 1 = no sensitization; for IC50 ratios of non- and 3-AB treated cells HCT116: compound alone vs combination with 3-AB (2 mM)
Text: (§1) The 192 human DNA ligase inhibitors were screened in parallel for effects on proliferation and the ability to potentiate the effects of several DNA damaging agents using two cell human lines, a colon cancer line HCT116 and a normal breast epithelial cell line MCF10A using a Biomek FX Laboratory Automation Workstation as described (23). The DNA damaging agents used, methyl methanesulfonate (MMS), camptothecin, cis-platinum, 3 aminobenzamide and ionizing radiation, are representatives of classes of agents used to treat cancer. Briefly, HCT116 and MCF10A cells were plated in 96 well plates such that the cultures were about 80% confluent after 5 days incubation. Compounds were added to the cultures at either 15 μM or 50 μM 1 day after plating. After incubation for 3 days, cell lysed in a solution containing 1.2% Igepal CA-630 and SYBR green that stains DNA (1:1000, Molecular Probes, Eugene, Oreg.). Subsequently, fluorescence was measured per well. The studies with DNA damaging agents were performed as follows. […] For ionizing radiation, cells were pre-incubated with the compounds at 50 μM for 1 hour prior to exposure to 2 gray of ionizing radiation. Cultures were incubated for 3 days and then treated as above.

HCT116 and MCF10A cells = assay: Cell proliferation screen, result stated for one or both cell lines; format: cell-based, human; conditions: in vivo cell culture screen
Protocol: (§2) The ability of the compounds identified by CADD to inhibit proliferation of normal mammary epithelial MCF10A cells and colon carcinoma HCT116 cells was determined using a Biomek FX Laboratory Automation Workstation (Beckman Coulter, Inc., Fullerton, Calif.). On day 0, 20 μl of complete medium containing the appropriate number of cells (150-300) was plated per well of a 384-well tissue plate (Fisher Scientific, Hampton, N.H.) and incubated overnight at 37° C. with 5% CO2 and 90% humidity. Next day, day 1, compounds were prepared by serial dilution with complete medium to yield the concentration 100 μM, and 20 μl was added to each well containing 20 μl of medium and cells yielding the final concentration 50 μM in 40 μl volume. Plates were incubated for additional 3 days (days-2-5) until control cells (0.5% DMSO) reached ˜70-80% confluency. On day 6, 40 μl of lysis/detection solution containing 1.2% Igepal CA-630 (Sigma) and a 1:1000 dilution of SYBR Green I nucleic acid stain (Molecular Probes, Eugene, Oreg.) was added to each well. Following an overnight incubation at 37° C., total fluorescence was measured using a Fluorostar Galaxy plate reader with a 485 nm excitation filter and 520 nm emission filter set (BMG Labtech, Inc., Durham, N.C.). Data was exported to a custom program that determined growth inhibition by dividing each individual fluorescence value by the average of fluorescence values obtained with cells treated with DMSO alone.
as §1

[2] = system: MCF7, HCT116, HeLa, and MCF10A cells; assay: Survival assay on cell panel (FIG. 9); format: cell-based, human; conditions: for EC50 / cell survival: remark in words: cell line not stated; for potentiation of the cytotoxic effects of DNA-damaging agents: L67 3 μmol/L with MMS (MCF7 vs MCF10A), L189 20 μmol/L with ionizing radiation (HCT116 vs MCF10A), FIG. 9B; for cytotoxicity (cell survival): MCF7, HCT116, HeLa, MCF10A, FIG. 9A
Text: FIG. 9. […] A, effect of L67 (left) and L189 (right) on the survival of MCF7 (Δ), HCT116 (□), HeLa (⋄), and MCF10A (upsidedown triangle) cells. B, normal breast epithelial MCF10A cells (open symbols) and breast cancer MCF7 cells (filled symbols) in the absence (circles) or presence of 3 μmol/L of L67 (squares) were exposed to increasing concentrations of MMS (left). Normal breast epithelial MCF10A cells (open symbols) and colon cancer HCT116 cells (filled symbols) in the absence (circles) or presence of 20 μmol/L of L189 (squares) were exposed to increasing doses of ionizing radiation (right). C, hLigI (I), hLigIIIα (III), and hLigIV (IV) were detected in extracts (400 μg) of the indicated cell lines by immunoblotting. To control for extract loading β-actin was also detected by immunoblotting.
For survival assays, cells were plated in 6 well plates and grown either in the absence or presence of ligase inhibitors. Where indicated, either MMS (0-50 μM) was added to the medium or the cells were irradiated in a Cs-137 irradiator (0-2.5 Gy). After two weeks, colonies were stained with crystal violet (Sigma) and then counted.

T4 DNA ligase = target: T1, T4 DNA ligase (Enterobacteria phage T4, UniProt P00970); assay: High-throughput fluorescence-based DNA joining assay, non-specific inhibitor control; format: biochemical, bacteriophage T4; conditions: for inhibition of T4 DNA ligase, in words: in vitro screen, 100 μmol/L
T1 construct: purchased NEB
T1 sequence (P00970 1-487): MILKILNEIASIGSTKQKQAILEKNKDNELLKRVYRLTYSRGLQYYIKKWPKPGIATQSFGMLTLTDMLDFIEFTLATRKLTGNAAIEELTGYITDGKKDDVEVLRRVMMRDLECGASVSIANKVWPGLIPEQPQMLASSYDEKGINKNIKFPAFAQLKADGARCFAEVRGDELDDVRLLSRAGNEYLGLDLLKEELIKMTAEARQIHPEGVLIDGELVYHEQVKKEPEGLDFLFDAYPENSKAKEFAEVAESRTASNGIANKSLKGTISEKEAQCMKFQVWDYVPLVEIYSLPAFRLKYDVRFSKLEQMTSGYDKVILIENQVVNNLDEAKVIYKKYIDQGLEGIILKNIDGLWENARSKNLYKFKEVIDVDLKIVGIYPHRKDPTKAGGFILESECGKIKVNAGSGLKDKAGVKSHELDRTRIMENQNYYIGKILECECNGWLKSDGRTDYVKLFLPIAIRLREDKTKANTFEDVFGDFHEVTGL
Summary of the method: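 This counter-screen used a FRET-based DNA joining assay. Duplicate reactions held 10 pmol nicked DNA substrate and 10 units T4 DNA ligase, with or without 100 μmol/L compound. T4 ligase lacks the DNA-binding domain targeted in silico, so compounds inhibiting it were flagged as non-specific, likely DNA-binding.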

HCT116 cells [3] = assay: Cell proliferation screen (SYBR Green, Biomek FX); format: cell-based, human; conditions: for inhibition at 50 µM: Homo sapiens, HCT-116, read-out: % growth inhibition HCT116 50 uM; for Growth_Inh % (50 μM) HCT116: percentage of values obtained with DMSO alone
Protocol: as §2, §1

MCF10A cells = assay: Cell proliferation screen (SYBR Green, Biomek FX); format: cell-based, human; conditions: for inhibition at 50 µM: Homo sapiens, MCF-10A; for Growth_Inh % (50 μM) MCF10A: percentage of values obtained with DMSO alone
Protocol: as §2, §1

DNA = DNA binding by displacement of ethidium bromide from DNA; conditions: EtBr replacement assay; 192 at 0, 50, 100 μM
Protocol: Candidate ligase inhibitors identified by CADD were assayed for their ability to inhibit hLigI and T4 DNA ligase using a high-throughput, fluorescence energy transfer-based DNA joining assay (22). Duplicate reactions (30 μL) containing 10 pmol of nicked DNA substrate and either 0.25 pmol of hLigI or 10 units of T4 DNA ligase were incubated in the presence or absence of 100 μmol/L of the putative inhibitor. DNA binding by the candidate DNA ligase inhibitors was measured by displacement of ethidium bromide from DNA as previously described (30).

[4] = 100 μM, read-out: In vitro % inhib T4 100
[5] = 50 μM, read-out: In vivo growth inhb MCF10A % Inhb at 50
[6] = read-out: % growth inhibition MCF10A 50 uM
[7] = read-out: % activity Inhibition LigT4 100 uM

SMILES	MMS: Ratios of IC50 HCT116 (HCT116 cells [1])	inhibition of cell proliferation, in words (HCT116 and MCF10A cells)	EC50 ([2]; Homo sapiens)	inhibition at 100 µM (T4 DNA ligase; [4])	In vitro growth inhb HCT116 % Inhb at 50 (μM) (HCT116 cells [3])	inhibition at 50 µM (HCT116 cells [3])	inhibition at 50 µM (MCF10A cells; [5])	inhibition at 50 µM (MCF10A cells; [6])	inhibition at 100 µM (T4 DNA ligase; [7])	Growth_Inh % (50 μM) MCF10A (MCF10A cells; 50 μM)	Growth_Inh % (50 μM) HCT116 (HCT116 cells [3])	further results
O=C(Cn1cnc([N+](=O)[O-])n1)N/N=C/c1ccc(O)cc1O [Compound 151]	1.7	inhibited cell proliferation	~10 µM	0%	70%	70%	70%	70%				Radiosensitizers: IC50 ratios HCT116 (HCT116 cells [1]; ionizing radiation): 2
O=C(O)CSc1cc(Cl)c2nonc2c1[N+](=O)[O-] [Compound 64]	2**	inhibited cell proliferation	~50 µM	18 ± 8%		70%	40%	40%	18.4 ± 8.4%	40%		
Cc1c(Br)cc(NCC(=O)N/N=C\c2cc([N+](=O)[O-])ccc2O)cc1Br [Compound 67]	1.4	inhibited cell proliferation	~10 µM	0%	70%	70%	70%	70%	0%	70%	70%	IC50 ratios of non- and 3-AB treated cells HCT116 (HCT116 cells [1]): 1; DNA binding of compound (effect on DNA binding by ethidium bromide) (DNA): had no effect on DNA binding by ethidium bromide; potentiation of the cytotoxic effects of DNA-damaging agents [2]: potentiate the cytotoxic effects of DNA-damaging agents; cytotoxicity (cell survival) [2]: cytotoxic; inhibition of T4 DNA ligase, in words (T4 DNA ligase): inhibit hLigI but not T4 DNA ligase
C/C(O)=C1/C(=O)N(c2nc3ccccc3s2)N=C1c1ccccc1 [Compound 43]		inhibited cell proliferation		0%	70%	70%	70%	70%	0%			
COc1ccc(-c2cnc3c(O)nc(O)nc3n2)cc1 [Compound 190]		inhibited cell proliferation		5 ± 1%	40%	40%	40%	40%	5.4 ± 0.74%	70%	40%	
O=c1[nH]ncc(N/N=C\c2ccc(O)c([N+](=O)[O-])c2)c1Cl [Compound 82]		inhibited cell proliferation	~50 µM	14 ± 11%	40%	40%	70%	70%	13.9 ± 11.4%	70%	40%	DNA binding of compound (effect on DNA binding by ethidium bromide) (DNA): had no effect on DNA binding by ethidium bromide; cell survival: remark in words [2]: cytostatic, G1; inhibition of T4 DNA ligase, in words (T4 DNA ligase): inhibit hLigI but not T4 DNA ligase
Nc1nc(S)nc(O)c1/N=C/c1ccccc1 [Compound 189]		inhibited cell proliferation	~50 µM	3 ± 2%	70%	70%	70%	70%	3.2 ± 1.9%	70%	70%	DNA binding of compound (effect on DNA binding by ethidium bromide) (DNA): had no effect on DNA binding by ethidium bromide; potentiation of the cytotoxic effects of DNA-damaging agents [2]: potentiate the cytotoxic effects of DNA-damaging agents; cytotoxicity (cell survival) [2]: cytotoxic; inhibition of T4 DNA ligase, in words (T4 DNA ligase): inhibit hLigI but not T4 DNA ligase
CS(=O)(=O)NNC(=O)C(=O)NNc1ccccc1 [Compound 184]		inhibited cell proliferation			40%							EC50 [2]: ~10 µM; % activity Inhibition LigT4 100 uM (T4 DNA ligase; 100 uM): 0.42 ± 1.4%; In vitro % inhib T4 100 (μM) (T4 DNA ligase; 100 μM): 1 ± 1%; % growth inhibition HCT116 50 uM (HCT116 cells [3]; 50 uM): 40%; % growth inhibition MCF10A 50 uM (MCF10A cells; 50 uM): 70%; % growth inhibition of MCF10A cells in culture at 50 uM (MCF10A cells; 50 μM): 70%
O=C1Nc2ccccc2Oc2cc([N+](=O)[O-])cc([N+](=O)[O-])c21 [Compound 180]										70%	70%	
CCCCC(=O)c1ccc(O)cc1O [Compound 213]		inhibited cell proliferation		0%	70%	70%	70%	70%				
O=C(c1ccc(O)cc1)c1ccccc1O [Compound 200]	ID (1)			0%		70%		70%	0%			IC50 ratios of non- and 3-AB treated cells HCT116 (HCT116 cells [1]): ID (1); cell survival: remark in words [2]: metabolite active
Cc1oc(C(=O)O)cc1CSCc1cc(C(=O)O)c(C)o1 [Compound 197]				24 ± 6%					24.4 ± 5.8%			cell survival: remark in words [2]: no activity
